According to publication PMC9951879, “Synthesis of New Shogaol Analogues as NRF2 Activators and Evaluation of Their Anti-Inflammatory Activity, Modes of Action and Metabolic Stability” (Antioxidants, 2023):

Experiments:
[1] = tested on: NAD(P)H quinone oxidoreductase 1 (NQO1); assay: Prochaska microtiter plate bioassay, NQO1 induction in Hepa-1c1c7 cells; assay type: cell-based, mouse; settings: Mus musculus, Hepa-1c1c7, 48 h, Hepa-1c1c7 cells, 48 h; read-out: CD (concentration required to double the NQO1 level)
Protocol: The effect of shogaol thiophene compounds (STCs) on NRF2 activation is determined by measuring the NAD(P)H quinone oxidoreductase 1 (NQO1) inducer activity, as reported in our previous studies. The mouse hepatoma cells (Hepa-1c1c7, 1 × 10^4 per well) were incubated with STCs (10, 1, 0.1, 0.01, and 0.001 µM) for 48 h. The cells were lysed using digitonin (0.8 mg/mL and 2 mM EDTA; Acros, UK), and the protein concentration was determined using Bradford’s assay kit (Thermo Fisher Scientific, USA). The cell lysate was incubated with a reaction mixture of 0.5 M Tris-Cl buffer (Calbiochem, USA), 7.5 mM FAD (Acros, UK), 150 mM glucose-6-phosphate (Calbiochem, San Diego, CA, USA), 2 U/mL glucose-6-phosphate dehydrogenase (Calbiochem, USA), 50 mM NADP+ (Sigma Aldrich, USA), 25 mM menadione (Sigma Aldrich, USA), and 0.7 mM MTT (Sigma Aldrich, USA) at 37 °C for 5 min. The absorbance was recorded at 610 nm using a microplate reader (Spectramax M3, Molecular Devices, San Jose, CA, USA), and the values were normalised to the total protein content.

[2] = Liver microsomal stability, human; assay type: in vitro ADME; settings: human liver microsomes, 1 μM (verapamil 0.5 μM)
Protocol: (§1) The liver microsomes of humans, rats, and mice were purchased from Merck (human, #M0567; rat, #M9066; mouse, #M9441). The metabolic stability of 6-shogaol and STCs (1 μM effective concentration; 5 μL) was mixed with liver microsomes (0.5 mg mL^−1; 445 μL) in a microcentrifuge tube. Verapamil (0.5 μM) was used as the positive control. The microsome and compound mixture were shaken on a plate shaker for 5 min to ensure homogeneity. NADPH (1 mM; 50 μL) was added to the mixture to start the metabolic reaction. The reaction mixture was incubated at 37 °C for 0, 3, 6, 15, 30, 45, and 60 min. The mixture (20 μL) was sampled and quenched with 180 μL of acetonitrile with internal standard (Donepezil 50 ng/mL) to terminate the metabolic reaction at each time point. Ultrapure water (80 μL) was added, and contents in the microcentrifuge tubes were centrifuged at 3800 rpm at 4 °C for 10 min. […] Each set of experiments was repeated three times in human, rat, and mouse liver microsomes. The concentration of the compounds versus time was plotted to determine the elimination rate constant (Kel). The intrinsic clearance (Clint) and half-life (t1/2) were calculated using the following equations.

[3] = Liver microsomal stability, rat; assay type: in vitro ADME; settings: rat liver microsomes, 1 μM (verapamil 0.5 μM)
Protocol: as §1

[4] = Liver microsomal stability, mouse; assay type: in vitro ADME; settings: mouse liver microsomes, 1 μM (verapamil 0.5 μM)
Protocol: as §1

KEAP1-NRF2 interaction = target: T1, KEAP1-NRF2 interaction (Homo sapiens, UniProt Q14145); assay: KEAP1-Nrf2 inhibitor screening, fluorescence polarisation assay; assay type: binding; settings: KEAP1 Kelch domain, read-out: IC50, NRF2-KEAP1 inhibition
T1 construct: purchased BPS Bioscience
T1 sequence (Q14145 2-624 limits assumed): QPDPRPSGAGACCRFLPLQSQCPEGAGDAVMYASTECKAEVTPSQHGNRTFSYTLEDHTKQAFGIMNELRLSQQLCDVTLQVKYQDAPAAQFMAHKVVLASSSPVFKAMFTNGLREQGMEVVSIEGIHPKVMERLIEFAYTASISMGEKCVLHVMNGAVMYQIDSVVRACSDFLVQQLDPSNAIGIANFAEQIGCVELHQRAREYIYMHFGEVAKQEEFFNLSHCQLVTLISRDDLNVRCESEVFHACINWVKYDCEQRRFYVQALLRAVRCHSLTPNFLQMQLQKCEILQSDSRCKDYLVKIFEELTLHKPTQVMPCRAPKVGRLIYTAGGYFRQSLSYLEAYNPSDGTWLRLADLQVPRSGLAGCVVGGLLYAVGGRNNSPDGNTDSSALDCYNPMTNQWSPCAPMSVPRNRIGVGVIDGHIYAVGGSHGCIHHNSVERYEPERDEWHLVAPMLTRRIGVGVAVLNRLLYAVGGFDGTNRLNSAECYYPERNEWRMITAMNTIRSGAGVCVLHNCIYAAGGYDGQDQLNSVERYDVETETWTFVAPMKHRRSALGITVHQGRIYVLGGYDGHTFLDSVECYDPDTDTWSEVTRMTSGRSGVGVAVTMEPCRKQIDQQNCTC
Protocol: The KEAP1-Nrf2 inhibitor screening assay kit (BPS Bioscience, San Diego, California, USA) was used to determine the effect of STCs in inhibiting KEAP1-NRF2 interaction following the manufacturer’s protocol and our reported method. The STC solutions were diluted with the assay buffer, and 5 μL of the STC solutions were incubated at room temperature for 30 min in the peptide mixture containing 0.5 μL NRF2 peptide (1 μM) and 20 μL KEAP1 (15 ng/μL). The fluorescence polarisation (FP) was measured using a microplate reader at λex 485 nm and λem 530 nm. The following equation was used to determine the per cent KEAP1-NRF2 inhibitory effect of the STCs. Keap1−Nrf2 inhbitory activity %=1−Relative FP of STC/Relative FP of postive control×100

GSK-3β = target: T2, GSK-3β (Homo sapiens, UniProt P49841); assay: GSK-3β kinase ADP-Glo assay; assay type: biochemical; settings: ATP 25 μM, read-out: IC50, GSK-3β enzyme activity
T2 construct: purchased Promega
T2 sequence (P49841 whole entry): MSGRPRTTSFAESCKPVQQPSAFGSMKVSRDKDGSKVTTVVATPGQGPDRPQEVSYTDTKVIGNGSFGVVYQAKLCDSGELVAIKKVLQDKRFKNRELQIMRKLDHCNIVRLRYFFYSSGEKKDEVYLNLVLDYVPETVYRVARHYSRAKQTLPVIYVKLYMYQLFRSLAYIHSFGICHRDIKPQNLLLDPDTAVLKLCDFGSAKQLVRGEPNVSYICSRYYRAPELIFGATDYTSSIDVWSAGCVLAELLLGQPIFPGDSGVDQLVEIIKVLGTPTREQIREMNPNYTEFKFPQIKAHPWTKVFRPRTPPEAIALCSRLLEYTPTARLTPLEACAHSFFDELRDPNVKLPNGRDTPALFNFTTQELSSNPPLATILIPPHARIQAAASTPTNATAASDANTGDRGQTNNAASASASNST
Protocol: The effect of STCs on GSK-3β activity was determined using GSK-3β kinase enzyme (Promega, WI, USA) and ADP-Glo^TM kinase assay (Promega, USA) following the manufacturer’s protocol and reported method. The STCs were dissolved in the kinase buffer to prepare different concentrations (10, 1, 0.1, 0.01, and 0.001 μM). One microliter of the test compounds was added to each well (384 well plate), followed by the addition of 2 μL of GSK-3β kinase (1 ng), 2 μL of the GSK-3β substrate (0.4 μg), and 2 μL of the ATP (25 μM), and incubated for 60 min. Then, 5 μL of ADP-Glo^TM reagent was added and incubated further for 40 min. Then 10 μL of kinase detection reagent was added and incubated for 30 min. The luminescence was recorded using a SpectraMax®L microplate reader (Molecular Devices, San Jose, CA, USA). The IC50 (concentration of the test compound required to produce half-maximal […]) from dose-response curves using non-linear regression analysis using GraphPad Prism (9.5.0; San Diego, CA, USA) software.

| SMILES | Clint [2] [mL/min/g liver] | half-life at 1 μM [2] [min] | Clint [3] [mL/min/g liver] | half-life at 1 μM [3] [min] | Clint [4] [mL/min/g liver] | half-life at 1 μM [4] [min] | IC50 (KEAP1-NRF2 interaction) [nM] | IC50 (GSK-3β) [nM] | EC (2-fold NQO1 induction) [1] [µM] |
| --- | --- | --- | --- | --- | --- | --- | --- | --- | --- |
| CCc1ccc(/C=C/C(=O)CCc2ccc(O)c(OC)c2)s1 [STC7, (E)-5-(4-Hydroxy-3-methoxyphenyl)-1-(5-ethylthiophen-2-yl)pent-1-en-3-one] | 6.27 ± 1.44 | 11.6 | 8.52 ± 1.16 | 8.54 | 7.85 ± 2.51 | 9.27 | 350 | 190 | 1.48 ± 0.34 |
| COc1cc(CCC(=O)/C=C/c2cccs2)ccc1O [STC2, (E)-5-(4-Hydroxy-3-methoxyphenyl)-1-(thiophen-2-yl)pent-1-en-3-one] | 6.85 ± 1.62 | 10.6 | 9.46 ± 1.85 | 7.69 | 10.64 ± 1.66 | 6.84 | 630 | 320 | 2.65 ± 0.27 |
| COc1cc(CCC(=O)/C=C/c2sccc2C)ccc1O [STC3, (E)-5-(4-Hydroxy-3-methoxyphenyl)-1-(3-methylthiophen-2-yl)pent-1-en-3-one] | 6.18 ± 1.34 | 11.8 | 9.65 ± 1.54 | 7.54 | 9.27 ± 2.14 | 7.85 | 540 | 240 | 1.84 ± 0.15 |
| COc1cc(CCC(=O)/C=C/c2ccsc2)ccc1O [STC1, (E)-5-(4-Hydroxy-3-methoxyphenyl)-1(thiophen-3-yl)pent-1-en-3-one] | 7.15 ± 1.24 | 10.2 | 10.63 ± 1.25 | 6.85 | 11.24 ± 1.43 | 6.47 | 860 ± 110 | 420 ± 80 | 4.19 ± 0.44 |

Stronger by IC50 (KEAP1-NRF2 interaction), values ahead:

| Clint [2] [mL/min/g liver] | half-life at 1 μM [2] [min] | Clint [3] [mL/min/g liver] | half-life at 1 μM [3] [min] | Clint [4] [mL/min/g liver] | half-life at 1 μM [4] [min] | IC50 (KEAP1-NRF2 interaction) [nM] | IC50 (GSK-3β) [nM] | SMILES | EC (2-fold NQO1 induction) [1] [µM] |
| --- | --- | --- | --- | --- | --- | --- | --- | --- | --- |
| 5.32 ±1.08 | 13.7 | 8.17 ± 1.74 | 8.91 | 7.23 ± 1.34 | 10.1 | 290 | 140 | COc1cc(CCC(=O)/C=C/c2ccc(Br)s2)ccc1O [STC6, (E)-5-(4-Hydroxy-3-methoxyphenyl)-1-(5-bromothiophen-2-yl)pent-1-en-3-one] | 0.42 ± 0.11 |
| 6.35 ± 1.79 | 11.5 | 8.79 ± 1.94 | 8.28 | 9.67 ± 1.23 | 7.52 | 280 | 130 | COc1cc(CCC(=O)/C=C/c2cc(Br)cs2)ccc1O [STC4, (E)-5-(4-Hydroxy-3-methoxyphenyl)-1-(4-bromothiophen-2-yl)pent-1-en-3-one] | 0.43 ± 0.09 |
